{
  "source": "patent US9528090B2",
  "about": "“Differentiation of human embryonic stem cells” (Janssen Biotech, Inc., priority 2010, dated 2016)",
  "key": {"[1]": {"tested_on": "human embryonic stem cells line H1", "assay": "Definitive endoderm differentiation of H1 cells, cluster seeding (activin A/WNT-3a, RPMI): FACS for CXCR4 and CD9", "type": "cell-based", "settings": "for % CXCR4 + CD9− / % CXCR4 − CD9+ / % CXCR4 − CD9−: cluster seeding, day 4", "method": "Cells of the human embryonic stem cells line H1 (p40-p52) were cultured on […]® (1:30 dilution) (BD Biosciences; Cat #356231)-coated dishes in MEF-CM (mouse embryonic fibroblast conditioned media) supplemented with 16 ng/ml of FGF2 (Catalog#100-18B, PeproTech, NJ), and differentiated into cells expressing markers characteristic of the definitive endoderm lineage as follows: • a. RPMI medium supplemented with 2% fatty acid-free BSA (Catalog#68700, Proliant, IA), and 100 ng/ml activin A (R&D Systems, MN) plus 20 ng/ml WNT-3a (Catalog#1324-WN-002, R&D Systems, MN) for one day, then • b. RPMI medium supplemented with 2% BSA and 100 ng/ml activin A for an additional three days.\n[…] ITS-X is a serum replacement supplemented comprised of 1 mg/ml of Insulin, 0.55 mg/ml of Transferrin, 0.00067 mg/ml of Sodium Selenite, […] As a control, 0.2% FBS (Catalogue#SH30070.03, Hyclone, UT) was used for day 1 of differentiation, 0.5% FBS at day 2 and 2% FBS was used for days 3-4. The FBS treated cultures were not supplemented with ITS-X.\nAt day 4, samples were collected for FACS and gene expression analysis using real-time PCR.\nThe cell surface receptor CXCR4 has been previously shown to be a marker of definitive endoderm. CD9 is a marker for undifferentiated ES cells. Consequently, an increase in the expression of CXCR4, and a decrease in the expression of CD9 in a population of cells is indicative for the formation of definitive endoderm."}, "[2]": {"tested_on": "human embryonic stem cells line H1", "assay": "Definitive endoderm differentiation of H1 cells, cluster seeding: real-time PCR gene expression", "type": "cell-based", "settings": "1-100 ng/ml of insulin, BSA medium, day 4, real-time PCR", "method": "Cells of the human embryonic stem cells line H1 (p40-p52) were cultured on MATRIGEL® (1:30 dilution) (BD Biosciences; Cat #356231)-coated dishes in MEF-CM (mouse embryonic fibroblast conditioned media) supplemented with 16 ng/ml of FGF2 (Catalog#100-18B, PeproTech, NJ), and differentiated into cells expressing markers characteristic of the definitive endoderm lineage as follows: • a. RPMI medium supplemented with 2% fatty acid-free BSA (Catalog#68700, Proliant, IA), and 100 ng/ml activin A (R&D Systems, MN) plus 20 ng/ml WNT-3a (Catalog#1324-WN-002, R&D Systems, MN) for one day, then • b. RPMI medium supplemented with 2% BSA and 100 ng/ml activin A for an additional three days.\nIn some of the cultures, the cells were treated with the following dilution of ITS-X (Catalogue#51500-056, Invitrogen, CA): 0, 1:10^6, 1:5×10^5, 1:10^5, 1:10^4. ITS-X is a serum replacement supplemented comprised of 1 mg/ml of Insulin, 0.55 mg/ml of Transferrin, 0.00067 mg/ml of Sodium Selenite, and 0.2 mg/ml of Ethanolamine The range of dilutions of ITS-X correspond to 0, 1 ng/ml, 2 ng/ml, 10 ng/ml, and 100 ng/ml of insulin. As a control, 0.2% FBS (Catalogue#SH30070.03, Hyclone, UT) was used for day 1 of differentiation, 0.5% FBS at day 2 and 2% FBS was used for days 3-4. The FBS treated cultures were not supplemented with ITS-X. […]"}, "[3]": {"tested_on": "human embryonic stem cells line H1", "assay": "Definitive endoderm differentiation of H1 cells, single cell seeding (activin A/WNT-3a, MCDB-131): FACS for CXCR4 and CD9", "type": "cell-based", "settings": "for % CXCR4 + CD9− / % CXCR4 − CD9+ / % CXCR4 − CD9−: single cell seeding, day 4", "method": "(§1) Cells of the human embryonic stem cells line H1 (p40-p52) were seeded as single cells at a density of 100000 cells/cm^2 on MATRIGEL® (1:30 dilution) (BD Biosciences; Cat #356231)-coated dishes in MEF-CM (mouse embryonic fibroblast conditioned media) supplemented with 16 ng/ml of FGF2 (Catalog#100-18B, PeproTech, NJ) and 10 μM of Y27632 (Rock inhibitor, Catalogue#Y0503, Sigma, Mo.). 72 hrs post seeding, cultures were differentiated into definitive endoderm (DE) as follows: • a. MCDB-131 (Catalogue#10372-019, Invitrogen, CA) medium supplemented with 2% fatty acid-free BSA (Catalog#68700, Proliant, IA), 0.0025 g/ml sodium bicarbonate (Catalogue #S3187, Sigma, Mo.), 1× GlutaMax™ (Catalogue #35050-079, Invitrogen, Ca) and 100 ng/ml activin A (R&D Systems, MN) plus 20 ng/ml WNT-3a (Catalog#1324-WN-002, R&D Systems, MN) for one day, then • b. MCDB-131 medium supplemented with 2% BSA, sodium bicarbonate, Glutamax, and 100 ng/ml activin A for an additional three days.\n(§2) In some of the cultures, the cells were treated with the following concentrations of insulin (Catalogue#19278, Sigma, Mo.): 0, 1, 10, 100, 1000, or 10000 ng/ml. At day 4, samples were collected for FACS and gene expression analysis using real-time PCR.\nFIG. 5 depicts the CXCR4 and CD9 expression profile of the various treatments as measured by FACS analysis."}, "[4]": {"tested_on": "human embryonic stem cells line H1", "assay": "Definitive endoderm differentiation of H1 cells, single cell seeding (activin A/WNT-3a): real-time PCR gene expression", "type": "cell-based", "settings": "BSA medium", "method": "as §1, §2"}, "ES cells": {"tested_on": "ES cells", "settings": "200 ng/ml of insulin added to 2% FBS, MEF-CM, activin A; cited from earlier work"}, "[5]": {"settings": "BSA + 100 ng/ml insulin (ITS-X)"}, "[6]": {"settings": "super physiological insulin (1-10 μg/ml), BSA medium"}},
  "data": [
    {"substance": "insulin", "values": [
      {"measurement": "% CXCR4 + CD9−", "setting": "[1]; BSA + 1 ng/ml insulin (ITS-X)", "value": 70, "unit": "%"},
      {"measurement": "% CXCR4 − CD9+", "setting": "[1]; BSA + 1 ng/ml insulin (ITS-X)", "value": 13, "unit": "%"},
      {"measurement": "% CXCR4 − CD9−", "setting": "[1]; BSA + 1 ng/ml insulin (ITS-X)", "value": 10, "unit": "%"},
      {"measurement": "% CXCR4 + CD9−", "setting": "[1]; BSA + 5 ng/ml insulin (ITS-X)", "value": 67, "unit": "%"},
      {"measurement": "% CXCR4 − CD9+", "setting": "[1]; BSA + 5 ng/ml insulin (ITS-X)", "value": 15, "unit": "%"},
      {"measurement": "% CXCR4 − CD9−", "setting": "[1]; BSA + 5 ng/ml insulin (ITS-X)", "value": 12, "unit": "%"},
      {"measurement": "% CXCR4 + CD9−", "setting": "[1]; BSA + 10 ng/ml insulin (ITS-X)", "value": 69, "unit": "%"},
      {"measurement": "% CXCR4 − CD9+", "setting": "[1]; BSA + 10 ng/ml insulin (ITS-X)", "value": 13, "unit": "%"},
      {"measurement": "% CXCR4 − CD9−", "setting": "[1]; BSA + 10 ng/ml insulin (ITS-X)", "value": 13, "unit": "%"},
      {"measurement": "% CXCR4 + CD9−", "setting": "[1]; [5]", "value": 73, "unit": "%"},
      {"measurement": "% CXCR4 − CD9+", "setting": "[1]; [5]", "value": 12, "unit": "%"},
      {"measurement": "% CXCR4 − CD9−", "setting": "[1]; [5]", "value": 9, "unit": "%"},
      {"measurement": "expression of CXCR4, or CD9", "setting": "[1]; BSA medium, any concentration of insulin tested, FACS", "value": "no significant change"},
      {"measurement": "expression of markers of definitive endoderm (FOXA2, SOX17, CXCR4), mesenchyme (T), extraembryonic (SOX7, AFP)", "setting": "[2]", "value": "did not significantly affect"},
      {"measurement": "% CXCR4 + CD9−", "setting": "[3]; BSA + 1 ng/ml insulin", "value": 96, "unit": "%"},
      {"measurement": "% CXCR4 − CD9+", "setting": "[3]; BSA + 1 ng/ml insulin", "value": 1.5, "unit": "%"},
      {"measurement": "% CXCR4 − CD9−", "setting": "[3]; BSA + 1 ng/ml insulin", "value": 0.7, "unit": "%"},
      {"measurement": "% CXCR4 + CD9−", "setting": "[3]; BSA + 10 ng/ml insulin", "value": 95, "unit": "%"},
      {"measurement": "% CXCR4 − CD9+", "setting": "[3]; BSA + 10 ng/ml insulin", "value": 1.4, "unit": "%"},
      {"measurement": "% CXCR4 − CD9−", "setting": "[3]; BSA + 10 ng/ml insulin", "value": 0.7, "unit": "%"},
      {"measurement": "% CXCR4 + CD9−", "setting": "[3]; BSA + 100 ng/ml insulin", "value": 90, "unit": "%"},
      {"measurement": "% CXCR4 − CD9+", "setting": "[3]; BSA + 100 ng/ml insulin", "value": 4.1, "unit": "%"},
      {"measurement": "% CXCR4 − CD9−", "setting": "[3]; BSA + 100 ng/ml insulin", "value": 2, "unit": "%"},
      {"measurement": "% CXCR4 + CD9−", "setting": "[3]; BSA + 1 μg/ml insulin", "value": 90, "unit": "%"},
      {"measurement": "% CXCR4 − CD9+", "setting": "[3]; BSA + 1 μg/ml insulin", "value": 3.6, "unit": "%"},
      {"measurement": "% CXCR4 − CD9−", "setting": "[3]; BSA + 1 μg/ml insulin", "value": 2.2, "unit": "%"},
      {"measurement": "% CXCR4 + CD9−", "setting": "[3]; BSA + 10 μg/ml insulin", "value": 84, "unit": "%"},
      {"measurement": "% CXCR4 − CD9+", "setting": "[3]; BSA + 10 μg/ml insulin", "value": 6.6, "unit": "%"},
      {"measurement": "% CXCR4 − CD9−", "setting": "[3]; BSA + 10 μg/ml insulin", "value": 4.7, "unit": "%"},
      {"measurement": "CXCR4−CD9+ fraction", "setting": "[3]; [6]", "value": "increase in expression"},
      {"measurement": "percentage of CXCR4+CD9− cells", "setting": "[3]; [6]", "value": "decrease in the percentage"},
      {"measurement": "expression of markers associated with definitive endoderm (FOXA2, SOX17, CER1, CXCR4)", "setting": "[4]; 1-100 ng/ml insulin, day 4", "value": "did not significantly affect"},
      {"measurement": "expression of NANOG", "setting": "[4]; 1-10 μg/ml of insulin", "value": "did increase expression"},
      {"measurement": "decrease of the expression of SOX17", "setting": "ES cells", "value": "approximately 70%"}
    ]}
  ]
}
